From PMC12281475, “Mediator Kinase Inhibitor Selectivity and Activity in Colorectal Cancer” (ACS Chemical Biology, 2025)

Assays:
[1] = biological target: T1, CDK8_CycC (Homo sapiens, UniProt P49336); assay: Radiometric protein kinase assay (33PanQinase), CDK8_CycC; assay type: biochemical; settings: slope of the IC50 fit
T1 construct: purchased Reaction Biology

[2] = biological target: T2, CDK7_CycH_MAT1 (Homo sapiens, UniProt P50613); assay: Radiometric protein kinase assay (33PanQinase), CDK7_CycH_MAT1; assay type: biochemical
T2 construct: purchased Reaction Biology

[3] = biological target: T3, CDK13_CycK (Homo sapiens, UniProt Q14004); assay: Radiometric protein kinase assay (33PanQinase), CDK13_CycK; assay type: biochemical; settings: slope of the IC50 fit
T3 construct: purchased Reaction Biology

[4] = biological target: T4, CDK9_CycK (Homo sapiens, UniProt P50750); assay: Radiometric protein kinase assay (33PanQinase), CDK9_CycK; assay type: biochemical
T4 construct: purchased Reaction Biology
T4 sequence (P50750 whole entry): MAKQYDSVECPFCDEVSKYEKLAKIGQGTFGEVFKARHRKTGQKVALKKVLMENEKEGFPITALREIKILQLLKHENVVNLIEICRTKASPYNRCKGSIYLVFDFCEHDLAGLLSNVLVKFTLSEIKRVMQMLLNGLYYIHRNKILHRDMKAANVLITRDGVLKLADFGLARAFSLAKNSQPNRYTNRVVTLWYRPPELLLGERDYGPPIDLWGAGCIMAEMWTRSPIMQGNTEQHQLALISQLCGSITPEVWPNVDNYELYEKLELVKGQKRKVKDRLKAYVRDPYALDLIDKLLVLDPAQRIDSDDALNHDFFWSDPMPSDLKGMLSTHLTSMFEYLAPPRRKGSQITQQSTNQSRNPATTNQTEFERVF
T4 sequence (O75909 whole entry partner): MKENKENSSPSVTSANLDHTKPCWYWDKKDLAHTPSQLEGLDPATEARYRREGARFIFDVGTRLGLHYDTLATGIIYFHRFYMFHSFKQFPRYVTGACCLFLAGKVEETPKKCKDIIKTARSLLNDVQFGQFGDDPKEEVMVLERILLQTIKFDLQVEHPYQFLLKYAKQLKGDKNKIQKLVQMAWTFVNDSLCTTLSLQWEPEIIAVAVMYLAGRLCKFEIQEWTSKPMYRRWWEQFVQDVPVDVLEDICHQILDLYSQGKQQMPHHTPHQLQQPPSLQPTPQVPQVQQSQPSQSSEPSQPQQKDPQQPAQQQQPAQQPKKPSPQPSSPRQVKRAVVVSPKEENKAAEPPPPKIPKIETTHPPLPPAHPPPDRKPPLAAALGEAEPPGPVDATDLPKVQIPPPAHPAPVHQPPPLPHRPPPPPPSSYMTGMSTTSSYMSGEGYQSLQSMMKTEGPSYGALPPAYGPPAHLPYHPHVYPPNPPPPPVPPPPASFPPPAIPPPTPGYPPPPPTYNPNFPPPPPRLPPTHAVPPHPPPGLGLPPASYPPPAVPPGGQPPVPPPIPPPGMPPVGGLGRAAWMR

[5] = test system: CDK8; design: method as in numbers not given; settings: reporter displacement assay; previously characterized compounds, no method in this paper; ref numbers not given; read-out: IC50 for in vitro CDK8 binding; cited from earlier work
[6] = biological target: T5, CDK1_CycA2 (Homo sapiens, UniProt P06493); assay: Radiometric protein kinase assay (33PanQinase), CDK1_CycA2; assay type: biochemical
T5 construct: purchased Reaction Biology

[7] = biological target: T6, CDK1_CycE1 (Homo sapiens, UniProt P06493); assay: Radiometric protein kinase assay (33PanQinase), CDK1_CycE1; assay type: biochemical
T6 construct: purchased Reaction Biology

[8] = biological target: T7, CDK3_CycC (Homo sapiens, UniProt Q00526); assay: Radiometric protein kinase assay (33PanQinase), CDK3_CycC; assay type: biochemical
T7 construct: purchased Reaction Biology

[9] = biological target: T8, CDK1_CycB1 (Homo sapiens, UniProt P06493); assay: Radiometric protein kinase assay (33PanQinase), CDK1_CycB1; assay type: biochemical
T8 construct: purchased Reaction Biology
T8 sequence (P06493 whole entry): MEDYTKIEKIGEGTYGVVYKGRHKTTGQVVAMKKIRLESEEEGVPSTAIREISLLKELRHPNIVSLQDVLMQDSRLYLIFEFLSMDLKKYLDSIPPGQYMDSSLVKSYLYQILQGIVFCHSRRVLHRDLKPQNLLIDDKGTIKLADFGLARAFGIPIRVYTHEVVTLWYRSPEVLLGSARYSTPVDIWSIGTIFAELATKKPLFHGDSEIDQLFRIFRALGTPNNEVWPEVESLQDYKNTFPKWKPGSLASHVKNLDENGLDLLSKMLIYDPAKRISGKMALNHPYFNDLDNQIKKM
T8 sequence (P14635 whole entry partner): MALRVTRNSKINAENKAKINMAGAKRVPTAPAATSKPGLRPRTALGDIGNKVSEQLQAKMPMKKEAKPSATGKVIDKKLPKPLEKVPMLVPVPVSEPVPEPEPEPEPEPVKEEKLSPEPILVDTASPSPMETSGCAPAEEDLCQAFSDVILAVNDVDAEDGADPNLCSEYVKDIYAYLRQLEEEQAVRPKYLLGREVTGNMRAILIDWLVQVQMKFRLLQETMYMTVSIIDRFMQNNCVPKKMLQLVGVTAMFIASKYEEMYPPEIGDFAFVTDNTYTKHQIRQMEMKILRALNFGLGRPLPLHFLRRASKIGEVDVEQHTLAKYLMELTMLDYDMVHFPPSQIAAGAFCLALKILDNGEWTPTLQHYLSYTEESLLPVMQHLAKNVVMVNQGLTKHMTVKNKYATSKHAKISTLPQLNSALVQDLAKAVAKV

[10] = biological target: CDK11B 357-795_CycK (Homo sapiens, UniProt P21127); assay: Radiometric protein kinase assay (33PanQinase), CDK11B 357-795_CycK; assay type: biochemical
CDK11B 357-795_CycK, sequence (P21127 357-795): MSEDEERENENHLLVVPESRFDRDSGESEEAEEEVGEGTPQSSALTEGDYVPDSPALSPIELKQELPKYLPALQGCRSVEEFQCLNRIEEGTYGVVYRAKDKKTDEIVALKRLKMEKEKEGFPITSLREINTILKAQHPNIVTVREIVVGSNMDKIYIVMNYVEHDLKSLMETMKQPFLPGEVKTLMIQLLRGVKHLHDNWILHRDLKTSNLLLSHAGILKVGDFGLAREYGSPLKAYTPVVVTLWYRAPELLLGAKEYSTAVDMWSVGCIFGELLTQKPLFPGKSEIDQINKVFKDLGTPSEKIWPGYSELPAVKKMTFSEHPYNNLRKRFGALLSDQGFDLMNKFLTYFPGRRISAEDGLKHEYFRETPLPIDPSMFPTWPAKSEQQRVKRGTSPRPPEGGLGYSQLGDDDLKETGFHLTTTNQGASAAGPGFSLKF

[11] = biological target: T9, CDK16_CycY (Homo sapiens, UniProt Q00536); assay: Radiometric protein kinase assay (33PanQinase), CDK16_CycY; assay type: biochemical
T9 construct: purchased Reaction Biology

[12] = biological target: T10, CDK2_CycA2 (Homo sapiens, UniProt P24941); assay: Radiometric protein kinase assay (33PanQinase), CDK2_CycA2; assay type: biochemical
T10 construct: purchased Reaction Biology

[13] = biological target: T11, CDK4_CycD2 (Homo sapiens, UniProt P11802); assay: Radiometric protein kinase assay (33PanQinase), CDK4_CycD2; assay type: biochemical
T11 construct: purchased Reaction Biology

[14] = biological target: T12, CDK2_CycE1 (Homo sapiens, UniProt P24941); assay: Radiometric protein kinase assay (33PanQinase), CDK2_CycE1; assay type: biochemical
T12 construct: purchased Reaction Biology

[15] = biological target: T13, CDK15_CycA2 (Homo sapiens, UniProt Q96Q40); assay: Radiometric protein kinase assay (33PanQinase), CDK15_CycA2; assay type: biochemical
T13 construct: purchased Reaction Biology
T13 sequence (Q96Q40 whole entry): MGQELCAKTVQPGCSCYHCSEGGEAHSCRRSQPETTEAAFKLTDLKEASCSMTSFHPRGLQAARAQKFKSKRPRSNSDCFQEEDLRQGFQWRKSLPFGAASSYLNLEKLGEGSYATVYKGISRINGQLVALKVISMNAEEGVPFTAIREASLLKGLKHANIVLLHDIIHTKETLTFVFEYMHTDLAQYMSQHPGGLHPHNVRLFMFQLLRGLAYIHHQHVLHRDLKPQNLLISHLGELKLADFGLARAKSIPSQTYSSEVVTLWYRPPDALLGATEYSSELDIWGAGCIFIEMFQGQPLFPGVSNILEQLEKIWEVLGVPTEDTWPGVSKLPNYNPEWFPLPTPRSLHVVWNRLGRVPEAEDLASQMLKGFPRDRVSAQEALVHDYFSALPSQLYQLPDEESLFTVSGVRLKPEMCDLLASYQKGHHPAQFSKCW

[16] = biological target: T14, CDK4_CycD1 (Homo sapiens, UniProt P11802); assay: Radiometric protein kinase assay (33PanQinase), CDK4_CycD1; assay type: biochemical
T14 construct: purchased Reaction Biology

[17] = biological target: CDK20_CycT1 (Homo sapiens, UniProt Q8IZL9); assay: Radiometric protein kinase assay (33PanQinase), CDK20_CycT1; assay type: biochemical
[18] = biological target: CDK14_CycY (Homo sapiens, UniProt O94921); assay: Radiometric protein kinase assay (33PanQinase), CDK14_CycY; assay type: biochemical
[19] = biological target: T15, CDK9_CycT1 (Homo sapiens, UniProt P50750); assay: Radiometric protein kinase assay (33PanQinase), CDK9_CycT1; assay type: biochemical
T15 construct: purchased Reaction Biology

[20] = biological target: CDK10_CycQ (Homo sapiens, UniProt Q15131); assay: Radiometric protein kinase assay (33PanQinase), CDK10_CycQ; assay type: biochemical
CDK10_CycQ, sequence (Q15131 whole entry): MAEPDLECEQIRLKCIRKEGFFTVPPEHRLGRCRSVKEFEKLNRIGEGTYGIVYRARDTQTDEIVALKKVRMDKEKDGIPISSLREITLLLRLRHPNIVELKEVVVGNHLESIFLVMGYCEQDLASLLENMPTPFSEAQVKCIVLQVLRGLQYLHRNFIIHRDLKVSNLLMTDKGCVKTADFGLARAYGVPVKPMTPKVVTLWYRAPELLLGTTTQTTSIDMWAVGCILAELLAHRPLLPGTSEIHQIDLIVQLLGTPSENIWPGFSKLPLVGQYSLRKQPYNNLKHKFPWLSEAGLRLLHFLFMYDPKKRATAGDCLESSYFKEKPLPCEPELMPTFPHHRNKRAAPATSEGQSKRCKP
CDK10_CycQ, sequence (Q8N1B3 whole entry partner): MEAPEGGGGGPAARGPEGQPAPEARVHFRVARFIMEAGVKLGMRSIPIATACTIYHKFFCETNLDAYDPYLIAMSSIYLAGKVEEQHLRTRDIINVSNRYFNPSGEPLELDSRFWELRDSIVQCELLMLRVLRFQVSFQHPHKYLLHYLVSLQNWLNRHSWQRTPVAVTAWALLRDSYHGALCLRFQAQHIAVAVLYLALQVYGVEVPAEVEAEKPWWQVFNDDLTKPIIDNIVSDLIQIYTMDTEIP

[21] = biological target: T16, CDK6_CycD3 (Homo sapiens, UniProt Q00534); assay: Radiometric protein kinase assay (33PanQinase), CDK6_CycD3; assay type: biochemical
T16 construct: purchased Reaction Biology

[22] = biological target: T17, CDK6_CycD2 (Homo sapiens, UniProt Q00534); assay: Radiometric protein kinase assay (33PanQinase), CDK6_CycD2; assay type: biochemical
T17 construct: purchased Reaction Biology

[23] = biological target: T18, CDK19_CycC (Homo sapiens, UniProt Q9BWU1); assay: Radiometric protein kinase assay (33PanQinase), CDK19_CycC; assay type: biochemical
T18 construct: purchased Reaction Biology

[24] = biological target: CDK18_CycY (Homo sapiens, UniProt Q07002); assay: Radiometric protein kinase assay (33PanQinase), CDK18_CycY; assay type: biochemical
CDK18_CycY, sequence (Q07002 whole entry): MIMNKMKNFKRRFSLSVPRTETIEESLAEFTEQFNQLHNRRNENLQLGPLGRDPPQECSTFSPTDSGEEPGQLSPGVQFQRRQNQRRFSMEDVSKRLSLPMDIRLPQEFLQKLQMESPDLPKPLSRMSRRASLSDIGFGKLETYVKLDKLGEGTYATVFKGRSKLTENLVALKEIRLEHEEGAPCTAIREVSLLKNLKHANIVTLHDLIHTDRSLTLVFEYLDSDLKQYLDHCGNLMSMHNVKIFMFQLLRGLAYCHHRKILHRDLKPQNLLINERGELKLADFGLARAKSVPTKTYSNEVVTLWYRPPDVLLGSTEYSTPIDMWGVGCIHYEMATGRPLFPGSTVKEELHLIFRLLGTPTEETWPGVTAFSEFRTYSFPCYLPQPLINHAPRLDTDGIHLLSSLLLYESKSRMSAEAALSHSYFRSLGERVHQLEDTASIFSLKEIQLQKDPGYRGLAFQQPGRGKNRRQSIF
CDK18_CycY, sequence (Q8ND76 whole entry partner): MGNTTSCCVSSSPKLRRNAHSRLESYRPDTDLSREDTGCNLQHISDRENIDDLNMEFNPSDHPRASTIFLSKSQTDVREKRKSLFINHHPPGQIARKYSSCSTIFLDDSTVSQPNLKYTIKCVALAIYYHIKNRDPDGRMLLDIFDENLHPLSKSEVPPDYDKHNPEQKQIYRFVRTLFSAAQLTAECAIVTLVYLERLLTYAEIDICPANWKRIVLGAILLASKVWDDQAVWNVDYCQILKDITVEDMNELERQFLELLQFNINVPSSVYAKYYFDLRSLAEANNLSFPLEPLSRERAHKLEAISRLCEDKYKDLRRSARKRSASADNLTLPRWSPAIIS

[25] = biological target: T19, CDK6_CycD1 (Homo sapiens, UniProt Q00534); assay: Radiometric protein kinase assay (33PanQinase), CDK6_CycD1; assay type: biochemical; settings: slope of the IC50 fit
T19 construct: purchased Reaction Biology

[26] = biological target: CDK20_CycH (Homo sapiens, UniProt Q8IZL9); assay: Radiometric protein kinase assay (33PanQinase), CDK20_CycH; assay type: biochemical
[27] = biological target: T20, CDK3_CycE1 (Homo sapiens, UniProt Q00526); assay: Radiometric protein kinase assay (33PanQinase), CDK3_CycE1; assay type: biochemical; settings: slope of the IC50 fit
T20 construct: purchased Reaction Biology

[28] = biological target: T21, CDK5_p25NCK (Homo sapiens, UniProt Q00535); assay: Radiometric protein kinase assay (33PanQinase), CDK5_p25NCK; assay type: biochemical; settings: slope of the IC50 fit
T21 construct: purchased Reaction Biology

[29] = biological target: T22, CDK5_p35NCK (Homo sapiens, UniProt Q00535); assay: Radiometric protein kinase assay (33PanQinase), CDK5_p35NCK; assay type: biochemical
T22 construct: purchased Reaction Biology
T22 sequence (Q00535 whole entry): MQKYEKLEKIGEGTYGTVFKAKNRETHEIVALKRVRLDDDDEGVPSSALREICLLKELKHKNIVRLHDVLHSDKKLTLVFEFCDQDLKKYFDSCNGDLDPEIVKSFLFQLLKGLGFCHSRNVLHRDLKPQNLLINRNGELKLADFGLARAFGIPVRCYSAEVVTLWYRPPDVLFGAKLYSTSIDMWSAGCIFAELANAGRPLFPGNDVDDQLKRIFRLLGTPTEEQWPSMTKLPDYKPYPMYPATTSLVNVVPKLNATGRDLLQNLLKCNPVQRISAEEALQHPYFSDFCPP
T22 sequence (Q15078 whole entry partner): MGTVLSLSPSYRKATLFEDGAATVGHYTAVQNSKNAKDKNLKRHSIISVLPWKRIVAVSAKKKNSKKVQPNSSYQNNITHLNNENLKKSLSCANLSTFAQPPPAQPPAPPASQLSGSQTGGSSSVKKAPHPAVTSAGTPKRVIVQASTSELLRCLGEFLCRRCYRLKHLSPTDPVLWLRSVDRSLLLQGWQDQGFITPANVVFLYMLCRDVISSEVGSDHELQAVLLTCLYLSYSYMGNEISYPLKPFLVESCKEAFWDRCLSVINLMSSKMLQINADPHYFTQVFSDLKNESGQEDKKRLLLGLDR

[30] = biological target: T23, CDK4_CycD3 (Homo sapiens, UniProt P11802); assay: Radiometric protein kinase assay (33PanQinase), CDK4_CycD3; assay type: biochemical
T23 construct: purchased Reaction Biology

[31] = biological target: T24, CDK2_CycD1 (Homo sapiens, UniProt P24941); assay: Radiometric protein kinase assay (33PanQinase), CDK2_CycD1; assay type: biochemical; settings: slope of the IC50 fit
T24 construct: purchased Reaction Biology

[32] = biological target: T25, CDK12_CycK (Homo sapiens, UniProt Q9NYV4); assay: Radiometric protein kinase assay (33PanQinase), CDK12_CycK; assay type: biochemical
T25 construct: purchased Reaction Biology

[33] = biological target: CDK17_p35NCK (Homo sapiens, UniProt Q00537); assay: Radiometric protein kinase assay (33PanQinase), CDK17_p35NCK; assay type: biochemical
[34] = highest assay concentration 1.00E-05 M
[35] = highest assay concentration 1.00E-05 M, read-out: IC50

Compound: Cn1ncc2cc(-c3cnc(N)c(Cl)c3N3CCC4(CCNC4=O)CC3)ccc21 [CCT251921]
- Hill Slope [1]: -0.55
- IC50 [2, 34]: > 10 µM
- Hill Slope ([2]; slope of the IC50 fit): -0.33
- Hill Slope [3]: 0.03
- IC50 [4, 34]: > 10 µM
- Hill Slope ([4]; slope of the IC50 fit): -0.77
- IC50 [5]: 4.9 nM
- IC50 [6, 35]: > 10 µM
- Hill Slope ([6]; slope of the IC50 fit): -0.53
- IC50 [7, 35]: > 10 µM
- Hill Slope ([7]; slope of the IC50 fit): -0.77
- IC50 [8]: > 10 µM
- Hill Slope ([8]; slope of the IC50 fit): -0.55
- IC50 [9, 34]: > 10 µM
- Hill Slope ([9]; slope of the IC50 fit): -0.32
- IC50 [10, 34]: > 10 µM
- Hill Slope ([10]; slope of the IC50 fit): -0.41
- IC50 [11, 34]: > 10 µM
- Hill Slope ([11]; slope of the IC50 fit): -0.3
- IC50 [12, 35]: > 10 µM
- Hill Slope ([12]; slope of the IC50 fit): -0.89
- IC50 [13, 34]: > 10 µM
- Hill Slope ([13]; slope of the IC50 fit): -0.33
- IC50 [14, 35]: > 10 µM
- Hill Slope ([14]; slope of the IC50 fit): -0.94
- IC50 [15, 34]: > 10 µM
- Hill Slope ([15]; slope of the IC50 fit): -0.85
- IC50 [16, 34]: > 10 µM
- Hill Slope ([16]; slope of the IC50 fit): -0.37
- IC50 [17, 34]: > 10 µM
- Hill Slope ([17]; slope of the IC50 fit): -0.33
- IC50 [18, 34]: > 10 µM
- Hill Slope ([18]; slope of the IC50 fit): -0.73
- IC50 [19, 34]: > 10 µM
- Hill Slope ([19]; slope of the IC50 fit): -1.01
- IC50 [20, 34]: > 10 µM
- Hill Slope ([20]; slope of the IC50 fit): -0.72
- IC50 [21, 34]: > 10 µM
- Hill Slope ([21]; slope of the IC50 fit): -0.33
- IC50 [22, 34]: > 10 µM
- Hill Slope ([22]; slope of the IC50 fit): -0.59
- IC50 [23]: 409 nM
- Hill Slope ([23]; slope of the IC50 fit): -0.45
- IC50 [24, 34]: > 10 µM
- Hill Slope ([24]; slope of the IC50 fit): -0.84
- Hill Slope [25]: -0.13
- IC50 [26, 34]: > 10 µM
- Hill Slope ([26]; slope of the IC50 fit): -0.38
- Hill Slope [27]: -0.12
- Hill Slope [28]: -0.17
- IC50 [29, 34]: > 10 µM
- Hill Slope ([29]; slope of the IC50 fit): -0.4
- IC50 [30, 34]: > 10 µM
- Hill Slope ([30]; slope of the IC50 fit): -0.37
- Hill Slope [31]: 0
- IC50 [32, 34]: > 10 µM
- Hill Slope ([32]; slope of the IC50 fit): -0.32
- IC50 [33, 34]: > 10 µM
- Hill Slope ([33]; slope of the IC50 fit): -0.39
